Data reported in patent US4621077A, “Pharmacologically active biphosphonates, process for the preparation thereof and pharmaceutical compositions therefrom” (Istituto Gentili S.p.A., priority 1982, dated 1986).
Several values for one entry are separate records, joined by “and”; a condition that tells them apart may be missing. Equal entries are not always repeated. Where two headings read alike, the source gives them in different places.

Experiments:
skull cells = experiment: cells; format: cell-based, Wistar rats; conditions: Rattus norvegicus, read-out: Effect on the cellular number ± S.E.M.
Experimental: (§1) Cellular culture: the cells are cultured according to the method described by Fast et al, (Biochem. J. 172, 97-107 (1978)). By way of summary, the skulls removed from Wistar rats, one day old, are digested with collagenase. The cells set free are placed on a plate with concentration of 200,000 cells per cc of medium in disks "clusters" suitable for culture, the plates having 24 wells of 1.6 cm in diameter containing 0.5 cc of medium. The cells are cultivated in the essential minimum medium containing 10% of foetal calf serum in an atmosphere of 5% CO2 at 37° up to the eighth day. The bisphosphonates are added on the first day up to the end of the experiment. The medium is changed on the first, fourth and seventh day.
The cells are counted with a Coulter counter after they have been set free from the disks by digestion with a mixture of collagenase and trypsin.

[1] = test system: skull cells (lactate production); experiment: cells; format: cell-based, Wistar rats; conditions: Rattus norvegicus, 16 h, read-out: Effect on the production of lactate ± S.E.M.
Experimental: as §1
On the seventh day, the medium is changed and the cells are incubated for 16 hours. The lactate produced during this period is measured in an extract in HClO4 of the medium using lactatodehydrogenase.

[2] = test system: patients with primary hyperparathyroidism
Experimental: The substance ABDP, aminobutanediphosphonate has been used for venous infusion, 0.5-25 mg/day dissolved in 500 cc of 5% glucose solution in the following conditions:
Eight individuals having different degrees of calcemia varying to the extent of 17-11 mg%, were treated.

[3] = test system: patients with Paget's disease
Experimental: (§2) The substance ABDP, aminobutanediphosphonate has been used for venous infusion, 0.5-25 mg/day dissolved in 500 cc of 5% glucose solution in the following conditions: […]

[4] = test system: patients with widespread neoplastic osteolysis; conditions: six patients, 4 mg/day
Experimental: as §2

[5] = test system: bone reabsorption (metaphyseal bone density); experiment: Metaphyseal bone density / inhibition of bone reabsorption in rats treated for 7 days; format: in vivo; conditions: for metaphysical density: 7 days, rats
[6] = test system: inhibition of the bone reabsorption
[7] = test system: patients with tumoral osteolysis
injection sites / skin = experiment: Necrosis at the injection sites in rats (local skin toxicity)
Text: The symbol "x" represents a conventional score, that is "x" meand slight necrosis, "xx" means severe necrosis, "xxx" means very severe necrosis.

[8] = test system: patients with tumoral osteolysis; conditions: comparison stated for other bisphosphonates, no own test shown; cited from earlier work
Solubility in water = format: physicochemical
[9] = two patients, 50 mg, three days

For NCCCC(O)(P(=O)(O)O)P(=O)(O)O [AHBU BP, 4-amino-1-hydroxybutan-1,1-biphosphonic acid], which activity at 2.5 µM (skull cells) is on record?
Its activity at 2.5 µM is 100 ± 1.6%.

And the activity at 25 µM (skull cells)?
The activity at 25 µM was 101 ± 1.5%.

What about the activity at 250 µM (skull cells) of the same molecule?
The activity at 250 µM was 74.2 ± 4.7%.

What about the activity at 2.5 µM [1] of the same molecule?
Its activity at 2.5 µM is 88 ± 1.5%.

What about the activity at 25 µM [1] of the same molecule?
Its activity at 25 µM is 79.6 ± 4.1%.

And the activity at 250 µM [1]?
Its activity at 250 µM is 180 ± 18.6%.

And the “times more active than Cl2 MDP” value ([2]; comparison in patients with primary hyperparathyroidism, Cl2 MDP data from Adami et al, 1983)?
The value was 20-100 times.

And the calcemia and hydroxyprolinuria ([2]; four patients, 4-8 mg/day, 3-4 days)?
The calcemia and hydroxyprolinuria was “the decrease of calcemia has been transitory, with the values of calcemia and the hydroxyprolinuria having a tendency to return to the basal values a few days after the suspension of the drug”.

What about the calcemia ([2]; one case with border line calcemia, 4 mg/day for four days) of the same molecule?
Its calcemia is “has not caused any variation in the calcemia even if it is accompanied by a persistent reduction in the calcemia”.

And the calcemia ([2]; seven patients with very elevated calcemia, venous infusion)?
The calcemia was “a drastic reduction of calcemia was achieved up to normal values in five of the patients”.

What about the hydroxyprolinuria ([2]; simultaneous with decrease of calcemia) of the same molecule?
Its hydroxyprolinuria is “rapid and parallel decrease of hydroxyprolinuria”.

What about the calcemia ([2]; three cases, 25 mg/day for seven days) of the same molecule?
The calcemia was “normalization of calcemia up to the day of surgical intervention”.

And the “hydroxyprolinuria and alkaline phosphatemia at follow-up” value ([3]; after 6-8 months)?
The value was “normal values of hydroxyprolinuria and alkaline phosphatemia”.

And the alkaline phosphatemia ([3]; three patients, 4 mg or 0.5 mg per day)?
The alkaline phosphatemia was “gradual decrease up to normal values after 3-4 months of therapeutic cycle”.

What about the “days of treatment after which painful bone symptoms decreased” value [4] of the same molecule?
The value was 5 to 8 days.

And the calciuria ([4]; two weeks)?
Its calciuria is “normalization of calciuria”.

And the decrease of hydroxyprolinuria ([4]; in five days)?
The decrease of hydroxyprolinuria was 50-80%.

What about the “times superior activity versus AHPrBP (inhibition of bone reabsorption)” value ([5]; in vivo in rats) of the same molecule?
Its value is “about 100 times”.

And the “times more active than Cl2 MDP (inhibition of the bone reabsorption)” value ([6]; clinical, overall conclusion)?
Its value is 100-300 times.

And the “activity on the immunity system” value ([6]; detailed observations in comparison not available yet)?
Its value is “the activity on the immunity system appears to be peculiar to ABDP”.

And the fever after administration ([7]; human, in vivo)?
Its fever after administration is “not been followed by fever”.

What about the effect of treatment [7, 9] of the same molecule?
Its effect of treatment is “surprisingly every effective”.

What about the “period of remission of the symptoms” value [7, 9] of the same molecule?
The value was “surprisingly long”.

Which metaphysical density ([5]; 0.01 mg P/kg s.c., s.c. NaCl controls 29.72) does the source give for NCCC(O)(P(=O)(O)O)P(=O)(O)O [AHPrBP, 3-amino-1-hydroxypropylidene-1,1-bisphosphonate] here?
Its metaphysical density is 39.53 % volume of calcified tissue.

And the metaphysical density ([5]; 0.1 mg P/kg s.c., s.c. NaCl controls 29.72)?
Its metaphysical density is 50.31 % volume of calcified tissue.

And the metaphysical density ([5]; 2.0 mg P/kg p.o., p.o. NaCl controls 28.45)?
Its metaphysical density is 33.72 % volume of calcified tissue.

What about the “necrosis at the injection sites” value (injection sites / skin; 0.01 mg P/kg, 1 day) of the same molecule?
Its value is “.0”.

What about the “necrosis at the injection sites” value (injection sites / skin; 0.01 mg P/kg, 2 day) of the same molecule?
Its value is “.0”.

What about the “necrosis at the injection sites” value (injection sites / skin; 0.01 mg P/kg, 3 day) of the same molecule?
Its value is “.0”.

And the “necrosis at the injection sites” value (injection sites / skin; 0.01 mg P/kg, 4 day)?
Its value is “.0”.

And the “necrosis at the injection sites” value (injection sites / skin; 0.01 mg P/kg, 5 day)?
Its value is “.0”.

What about the “necrosis at the injection sites” value (injection sites / skin; 0.01 mg P/kg, 6 day) of the same molecule?
Its value is “.0”.

What about the “necrosis at the injection sites” value (injection sites / skin; 0.01 mg P/kg, 7 day) of the same molecule?
Its value is “.0”.

And the “necrosis at the injection sites” value (injection sites / skin; 0.1 mg P/kg, 1 day)?
Its value is “.0”.

What about the “necrosis at the injection sites” value (injection sites / skin; 0.1 mg P/kg, 2 day) of the same molecule?
Its value is “.0”.

And the “necrosis at the injection sites” value (injection sites / skin; 0.1 mg P/kg, 3 day)?
The value was “.0”.

And the “necrosis at the injection sites” value (injection sites / skin; 0.1 mg P/kg, 4 day)?
Its value is “.0”.

What about the “necrosis at the injection sites” value (injection sites / skin; 0.1 mg P/kg, 5 day) of the same molecule?
Its value is “.0”.

What about the “necrosis at the injection sites” value (injection sites / skin; 1 mg P/kg, 1 day) of the same molecule?
The value was “xxx and .0”.

What about the “necrosis at the injection sites” value (injection sites / skin; 1 mg P/kg, 2 day) of the same molecule?
The value was “xxx and .0”.

What about the “necrosis at the injection sites” value (injection sites / skin; 1 mg P/kg, 3 day) of the same molecule?
The value was “.0”.

And the “necrosis at the injection sites” value (injection sites / skin; 10 mg P/kg, 1 day)?
The value was “xxx”.

What about the “necrosis at the injection sites” value (injection sites / skin; 10 mg P/kg, 2 day) of the same molecule?
The value was “xxx”.

And the “local / topical skin toxicity, in words” value (injection sites / skin; rat, in vivo)?
Its value is “The most toxic substance”.

And the fever after administration [8]?
The fever after administration was “occurs very frequently”.

For O=P(O)(O)C(F)(F)P(=O)(O)O [Example 6, trisodium difluoromethanebiphosphonate], which solubility in water (Solubility in water) is on record?
The solubility in water was “soluble in water”.

With O=P(O)(O)C(F)(F)P(=O)(O)O [Example 8, lysine difluoromethanebiphosphonate] as the molecule, how does the solubility in water (Solubility in water) read?
The solubility in water was “very soluble in water”.
